{"source": "ChEMBL document CHEMBL1137595", "about": "“Identification and optimisation of a series of substituted 5-(1H-pyrazol-3-yl)-thiophene-2-hydroxamic acids as potent histone deacetylase (HDAC) inhibitors” (Bioorg Med Chem Lett, 2007)", "experiment": "Oral bioavailability after oral dosing at 5 mg kg-1", "format": "ADME, organism-based", "settings": "mouse, in vivo", "data": [{"smiles": "O=C(NO)c1ccc(-c2ccn(CCNCc3ccc4c(c3)OCO4)n2)s1", "values": [{"measurement": "bioavailability", "value": 10, "unit": "%"}]}]}
